The source of these data is US8802149B2, “Systems and processes for spray drying hydrophobic and hydrophilic components” (Novartis Pharma AG, priority 1996, dated 2014).

A short description of the data set: Solubility of drug and excipient in common organic solvent or cosolvent system. The format is physicochemical. The conditions noted are these: for solubility in Acetone (50%)/Water (50%) (by volume): solvent Acetone (50%)/Water (50%) by volume. The source says:
According to the third aspect of the present invention. an organic solvent or cosolvent is selected in which both the hydrophobic drug or other component and the hydrophilic excipient or other component may be dissolved. […] The solvent must further be selected to leave minimum residual solvent in the spray dried process and/or be capable of being adequately removed from the spray dried product. The particular organic solvent or cosolvent selected will depend on the nature of the hydrophobic drug and the hydrophilic excipient.
Each of these formulations has been spray dried and tested as described in further detail in the Experimental section hereinafter.

The structures appear in SMILES notation.

Consider `CCCC1O[C@@H]2C[C@H]3[C@@H]4CCC5=CC(=O)C=C[C@]5(C)[C@H]4[C@@H](O)C[C@]3(C)[C@]2(C(=O)CO)O1` (some centres unmarked) [Budesonide], for which the “solubility in Acetone (50%)/Water (50%) (by volume)” value is on record as “(adequate solubility)”. Also, under “solvent DMSO (33%)/Acetone (67%) by volume”, the “solubility in DMSO (33%)/Acetone (67%) (by volume)” value is recorded as “(good solubility)”. The “solubility in Ethanol” value (solvent Ethanol) is given as “(adequate solubility)”. The “solubility in Methanol” value (solvent Methanol) is “(good solubility)”.
For the compound `OC[C@@H](O)[C@@H](O)[C@H](O)[C@H](O)CO` [Mannitol], the “solubility in Acetone (50%)/Water (50%) (by volume)” value is recorded as “(adequate solubility)”.
